# Patent publication US20250302080A1, “SWEETNESS AND/OR FLAVOR ENHANCER” (AJINOMOTO CO., INC., priority 2022, published 2025)
# Test: Sensory evaluation of sweetness intensity in sucralose solution (Experimental Examples 23-24)
# Settings: sucralose solution; added alone; 3.0 points or more
# Protocol: A negative control sucralose solution (0.0140 wt % sucralose solution) was prepared by dissolving sucralose in filtered water.
# A sensory evaluation of sweetness intensity was performed for each sample by a panel of four experts according to the following evaluation criteria.
# Sweetness intensity was evaluated by 0.0 to 10.0 point based on the following reference samples (negative control (hereinafter referred to as NC) (0.0 point); reference 1 (hereinafter referred to as R1) (3.0 points), reference 2 (hereinafter referred to as R2) (5.0 points); reference 3 (hereinafter referred to as R3) (10.0 points)). The average score (rounded to two decimal places) of each expert panelist was calculated. An average score of 3.0 points or more was considered to be functional. • NC (0.0 point): 0.0140 wt % sucralose solution (solvent: filtered water) • R1 (3.0 points): 0.0164 wt % sucralose solution (solvent: filtered water) • R2 (5.0 points): 0.0180 wt % sucralose solution (solvent: filtered water) • R3 (10.0 points): 0.0220 wt % sucralose solution (solvent: filtered water)
# A sensory evaluation of sweetness intensity was performed for each sample by a panel of four experts according to the same evaluation criteria as in Experimental Example 23.
smiles,measurement,value
CCCCCCCCCC(=O)O [decanoic acid],concentration at which a sweetness-enhancing effect was confirmed,10 ppb
